Experimental findings from PubChem BioAssay (NCI) are described below.

Among the test systems are DU-145 prostate; HCT-116 colon; HCT-15 colon; HL-60(TB) leukemia; HS 578T breast; MOLT-4 leukemia; OVCAR-3 ovarian; OVCAR-4 ovarian.
Holding throughout (test): DTP human tumour cell line panel, 48 h

The structures appear in SMILES notation.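 Briefly, cells in 96-well plates were exposed to five compound concentrations for 48 h, and endpoints were estimated by linear interpolation. GI50 = concentration required for 50% inhibition of growth. Definition used: TGI = concentration required for complete inhibition of growth.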

For orientation: GI50 means the concentration at which growth is held to half of that of the control. One may read the TGI as the concentration giving total growth inhibition. On to `COC(=O)c1c[nH]c2cc(OC(C)C)c(OC(C)C)cc2c1=O`, for which the GI50 in the experiment with DU-145 prostate, in the experiment on HCT-116 colon, with HCT-15 colon, with HL-60(TB) leukemia, in the experiment on HS 578T breast and with MOLT-4 leukemia was more than 100 µM each time. The GI50 in the experiment with OVCAR-3 ovarian is more than 100 µM. The concentration for total growth inhibition (TGI) in the experiment on DU-145 prostate, in the experiment with HCT-116 colon, in the experiment on HCT-15 colon, in the experiment with HL-60(TB) leukemia, in the experiment with HS 578T breast and with MOLT-4 leukemia was more than 100 µM in each case. Further, the TGI in the experiment with OVCAR-3 ovarian is more than 100 µM.

For `Cc1ccc(N(C=O)c2c([N+](=O)[O-])cc([N+](=O)[O-])c3c2=[N+]([O-])CN=3)cc1`, the TGI in the experiment on DU-145 prostate is 72.9 µM; with HCT-116 colon, 67.4 µM; with HCT-15 colon, 34.8 µM; in the experiment with HL-60(TB) leukemia, 61.3 µM; in the experiment with HS 578T breast, more than 100 µM; with MOLT-4 leukemia, 80.4 µM. Further, the total growth inhibition concentration (TGI) in the experiment on OVCAR-3 ovarian is 73.6 µM; in the experiment with OVCAR-4 ovarian it was more than 100 µM.

Turning to `Cc1ccc(N)cc1[As]=[As]c1cc(N)ccc1C` (stereo not given), the GI50 in the experiment on DU-145 prostate is 1.81 µM; with HCT-116 colon it was 1.64 µM; in the experiment with HCT-15 colon, 0.75 µM; in the experiment with HL-60(TB) leukemia, 2.01 µM; with HS 578T breast, 2.81 µM; in the experiment on MOLT-4 leukemia it was 1.94 µM. Further, the GI50 in the experiment on OVCAR-3 ovarian is 1.62 µM; in the experiment with OVCAR-4 ovarian it was 1.42 µM. Moreover, the TGI is 3.23 µM with DU-145 prostate; 3.15 µM in the experiment on HCT-116 colon; 2.24 µM with HCT-15 colon; 5.8 µM in the experiment on HL-60(TB) leukemia; more than 100 µM in the experiment on HS 578T breast; 8.82 µM in the experiment with MOLT-4 leukemia. In addition, the total growth inhibition concentration (TGI) with OVCAR-3 ovarian turned out to be 3.02 µM; in the experiment with OVCAR-4 ovarian, 2.79 µM.

`COc1cccc(Nc2ncnc3cc(NC(=O)CCl)ccc23)c1`: the GI50 was 1.23 µM with DU-145 prostate; 1.02 µM in the experiment on HCT-116 colon; 0.353 µM in the experiment with HCT-15 colon; 1.27 µM in the experiment with HL-60(TB) leukemia; 1.84 µM with HS 578T breast; 0.768 µM in the experiment with OVCAR-3 ovarian. Also, the TGI came out at 2.6 µM in the experiment on DU-145 prostate; 2.47 µM in the experiment with HCT-116 colon; 1.62 µM in the experiment on HCT-15 colon; 3.54 µM in the experiment with HL-60(TB) leukemia; 8.15 µM in the experiment on HS 578T breast; 2.22 µM in the experiment on OVCAR-3 ovarian.

For the compound `O=C1/C(=C\c2ccc(F)cc2)CN(C(=O)c2ccccc2F)C/C1=C\c1ccc(F)cc1`, the GI50 in the experiment on DU-145 prostate was 2.07 µM; with HCT-116 colon, 0.228 µM; in the experiment with HCT-15 colon, 1.05 µM; in the experiment on HL-60(TB) leukemia it was 1.11 µM; in the experiment with HS 578T breast, 3.66 µM; in the experiment on MOLT-4 leukemia, 1.72 µM. Moreover, the values for the GI50 with OVCAR-3 ovarian and in the experiment on OVCAR-4 ovarian were 1.67 µM and 2.33 µM, respectively. Moreover, the TGI in the experiment with DU-145 prostate is 4.15 µM; in the experiment on HCT-116 colon, 0.571 µM; in the experiment with HCT-15 colon, 2.58 µM; with HL-60(TB) leukemia, 4.57 µM; in the experiment with HS 578T breast, 20.3 µM; in the experiment with MOLT-4 leukemia, 7.49 µM. The TGI with OVCAR-3 ovarian amounted to 3.11 µM; in the experiment with OVCAR-4 ovarian it was 6.53 µM.

`C#C[C@@]1(O)[C@@H](CO)O[C@@H](n2cc(Br)c3c(Cl)ccnc32)[C@@H]1O`: the GI50 in the experiment with DU-145 prostate was 0.454 µM; in the experiment with HCT-116 colon, 0.859 µM; with HCT-15 colon it was 0.55 µM; in the experiment on HL-60(TB) leukemia, 1.03 µM; in the experiment on HS 578T breast it was 1.01 µM; in the experiment on MOLT-4 leukemia, 0.324 µM. The GI50 with OVCAR-3 ovarian was 0.621 µM; in the experiment with OVCAR-4 ovarian it was 0.677 µM. Further, the TGI in the experiment with DU-145 prostate was 4.79 µM; with HCT-116 colon it was more than 100 µM; in the experiment with HCT-15 colon, more than 100 µM; in the experiment with HL-60(TB) leukemia, 3.69 µM; in the experiment on HS 578T breast, more than 100 µM; in the experiment on MOLT-4 leukemia it was 3.05 µM. Also, the TGI in the experiment on OVCAR-3 ovarian is more than 75 µM; in the experiment on OVCAR-4 ovarian, more than 100 µM.

`O=C(Nc1nc(-c2ccc(Cl)cc2)cs1)c1cc(O)c(O)c(O)c1`: the GI50 in the experiment with DU-145 prostate is 247 µM; in the experiment on HCT-116 colon it was 195 µM; with HCT-15 colon, 150 µM; in the experiment on HL-60(TB) leukemia, 176 µM; in the experiment with HS 578T breast, 479 µM; with MOLT-4 leukemia, 130 µM. In addition, the values for the GI50 in the experiment on OVCAR-3 ovarian and with OVCAR-4 ovarian were 245 µM and 142 µM, respectively. Moreover, the TGI with DU-145 prostate is 1840 µM; with HCT-116 colon, 922 µM; in the experiment with HCT-15 colon, more than 5000 µM; in the experiment with HL-60(TB) leukemia, 907 µM; with HS 578T breast it was more than 5000 µM; in the experiment with MOLT-4 leukemia it was 840 µM. Besides, the TGI amounted to 1080 µM in the experiment with OVCAR-3 ovarian and 2490 µM in the experiment with OVCAR-4 ovarian.

Turning to `COc1cccc2c1C(=O)c1c(O)c3c(c(O)c1C2=O)C[C@@](O)(/C(CO)=N/NC(=O)CCCCCN1C(=O)C=CC1=O)C[C@@H]3O[C@H]1C[C@H](N)[C@H](O)[C@H](C)O1`, the GI50 in the experiment on DU-145 prostate was 0.554 µM; with HCT-116 colon, 0.41 µM; in the experiment with HCT-15 colon, 7.94 µM; in the experiment on HL-60(TB) leukemia, 0.8 µM; in the experiment with HS 578T breast it was 1.69 µM; in the experiment with MOLT-4 leukemia, 0.392 µM. The GI50 with OVCAR-3 ovarian was 1.89 µM; with OVCAR-4 ovarian, 2.25 µM. The TGI is 38.6 µM in the experiment with DU-145 prostate; more than 100 µM in the experiment on HCT-116 colon; more than 100 µM with HCT-15 colon; 15.5 µM in the experiment on HL-60(TB) leukemia; 9.64 µM with HS 578T breast; 28.3 µM with MOLT-4 leukemia. Also, the TGI in the experiment with OVCAR-3 ovarian is more than 64.4 µM; with OVCAR-4 ovarian, 22 µM.

As for `Cc1ccc(C[As+](c2ccccc2)(c2ccccc2)c2ccccc2)cc1`, the GI50 was 1.36 µM in the experiment with DU-145 prostate; 0.645 µM in the experiment on HCT-116 colon; 13 µM with HCT-15 colon; 0.286 µM in the experiment on HL-60(TB) leukemia; 2.19 µM in the experiment with HS 578T breast; 2.41 µM in the experiment with MOLT-4 leukemia. The GI50 in the experiment with OVCAR-3 ovarian is 0.611 µM; in the experiment on OVCAR-4 ovarian, 0.778 µM. The TGI was more than 56.8 µM in the experiment on DU-145 prostate; more than 36.2 µM in the experiment with HCT-116 colon; more than 100 µM with HCT-15 colon; 1.48 µM with HL-60(TB) leukemia; more than 48.8 µM in the experiment on HS 578T breast; 13.6 µM in the experiment on MOLT-4 leukemia. Also, the TGI in the experiment on OVCAR-3 ovarian was 13.9 µM; in the experiment on OVCAR-4 ovarian, more than 100 µM.
